Experimental data as given in ChEMBL document CHEMBL5252648, “Design, synthesis and bioactivity evaluation of a series of quinazolinone derivatives as potent PI3Kγ antagonist” (Bioorg Med Chem, 2023).

What was measured:
MCF7 = assay: Cytotoxicity against human MCF7 cells assessed as reduction in cell viability incubated for 24 hrs by CCK-8 assay; type: functional, cell-based; conditions: MCF7, 24 h
Jurkat = assay: Induction of apoptosis against human Jurkat cells assessed as late apoptotic cells at 10 uM measured for 24 hrs by Annexin V-FITC/propidium iodide staining based flow cytometry (reference value: 0.00%); type: functional
THP-1 = assay: Induction of apoptosis against human THP-1 cells assessed as necrotic cells at 10 uM measured for 24 hrs by Annexin V-FITC/propidium iodide staining based flow cytometry (reference value: 0.316%); type: functional

COc1ccc(C#Cc2cccc3cc(C(C)Nc4ncnc5[nH]cnc45)n(-c4ccccc4)c(=O)c23)cc1 (stereo not drawn)
IC50 (MCF7): > 100 µM | Activity (Jurkat): 0.047% | Activity (THP-1): 0.053%
